Results published in patent US11834450B2, “Compounds having ((3-nitrophenyl)sulfonyl)acetamide as BCL-2 inhibitors” (Eil Therapeutics, Inc., priority 2021, dated 2023).
Like-named read-outs stand apart in the source and are kept apart here.

Key:
MOLT-4 cells = test: Cell viability assay MOLT-4 (CellTiter-Glo); type: cell-based; details: Homo sapiens, read-out: MOLT-4 (CC50 code)
Experimental: (§1) Assay Condition: Used culture medium for HEK293-DMEM (PanEco, Cat #C420), for the rest of the cell lines—culture medium RPMI-1640 (PanEco, Cat #C363).
(§2) Assay Procedure: Compounds were prepared as 200× stocks with serial dilution in 100% DMSO with a final concentration of 1×. Dispersed 40 μl in 384-well plates at a concentration of 2000 cells per well for HEK293 and at a concentration of 4000 cells per well for the rest of the cell lines using a robotic station Biomek (Beckman). Before adding compounds, the cells were incubated at 37° C. (HEK293 were incubated for a day before adding compounds).
(§3) A dilution plate was prepared by pouring 78 μl of the appropriate culture medium using a robotic station Biomek (Beckman). Sequentially, using a robotic station, 2 μl of substances were taken and added to 78 μl of culture medium (dilution of compounds 40×). Took from there 10 μl and added to the plates to the cells (dilution of compounds 5×). The plates were incubated for 3 days at a temperature 37° C. After 3 days, 10 μl of CellTiter-Glo (Promega) was added to the cells and the luminescence was measured.

BCL-XL = target: T1, BCL-XL (Homo sapiens, UniProt Q07817); test: BCL-XL TR-FRET Assay (primary PPI inhibition); type: binding; details: 60 min incubation; read-out: BCLxL (IC50 code, BCL-XL TR-FRET)
T1 construct: purchased BPS Bioscience #50223
Experimental: BCL-XL TR-FRET Assay (BPS Bioscience, #50223) Assay Condition: The following assay concentrations and times were used: 10.5 ng BCL-XL, 5 ul of 1:100 anti-His Tb-labeled donor, 5 ul of 1:100 Dye-labeled acceptor, 5 ul of 1:80 BCL-XL Peptide Ligand, and 2 ul of test compound, with 60 min incubation time. The results of the assay were read using a Clariostar (BMG Labtech) plate reader with the following parameters: TR FRET, 340 ex/620 and 665 em; 60 μsec Delay; and 500 μsec integration.

[1] = Cell viability assay HEK293 (CellTiter-Glo); type: cell-based; details: human, HEK293 cells, read-out: HEK293 (CC50 code)
Experimental: as §1, §2, §3

BCL-2 = target: T2, BCL-2 (Homo sapiens, UniProt P10415); test: BCL-2 TR-FRET Assay (primary PPI inhibition); type: binding; details: 60 min incubation; read-out: BCL2 (IC50 code, BCL-2 TR-FRET)
T2 construct: purchased BPS Bioscience #50222

RS4-11 cells = test: Cell viability assay RS4-11 (CellTiter-Glo); type: cell-based; details: Homo sapiens, read-out: RS4-11 (CC50 code)
Experimental: as §1, §2, §3

[2] = 72 h, MOLT-4 cells, 3 days, CellTiter-Glo
[3] = 72 h, RS4-11 cells, 3 days, CellTiter-Glo

T2 sequence (P10415 whole entry): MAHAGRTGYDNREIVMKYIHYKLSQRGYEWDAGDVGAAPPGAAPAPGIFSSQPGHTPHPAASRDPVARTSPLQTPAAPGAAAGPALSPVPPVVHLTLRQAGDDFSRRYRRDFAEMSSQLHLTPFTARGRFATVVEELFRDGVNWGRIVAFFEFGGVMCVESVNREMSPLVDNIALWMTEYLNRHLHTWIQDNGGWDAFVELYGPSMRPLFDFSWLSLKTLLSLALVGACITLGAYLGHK
T1 sequence (Q07817 whole entry): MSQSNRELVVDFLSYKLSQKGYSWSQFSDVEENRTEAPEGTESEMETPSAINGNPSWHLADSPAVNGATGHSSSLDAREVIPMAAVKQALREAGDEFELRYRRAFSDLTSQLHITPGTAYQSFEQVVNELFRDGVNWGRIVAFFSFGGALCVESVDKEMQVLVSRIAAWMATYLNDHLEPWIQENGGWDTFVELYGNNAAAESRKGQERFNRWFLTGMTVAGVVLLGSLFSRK

Row | Structure (SMILES) | IC50 (BCL-XL) | IC50 (BCL-2) | CC50 (MOLT-4 cells; [2]) | CC50 at 3 days [1] | CC50 (RS4-11 cells; [3]) | CC50 (MOLT-4 cells; MOLT-4, 72 h) | CC50 (RS4-11 cells; RS4-11, 72 h)
1 | O=C(NS(=O)(=O)c1ccc(NCC2CCOCC2)c([N+](=O)[O-])c1)c1ccc(N2CCC(CN3C(=O)C4(CCCC4)C3c3ccc(Cl)cc3)CC2)cc1Oc1cnc2[nH]ccc2c1 (centres unmarked) [Compound 1, 4-[4-[[1-(4-chlorophenyl)-3-oxo-2-azaspiro[3.4]octan-2-yl]methyl]-1-piperidyl]-N-[3-nitro-4-(tetrahydropyran-4-ylmethylamino)phenyl]sulfonyl-2-(1H-pyrrolo[2,3-b]pyridin-5-yloxy)benzamide] | > 4 µM | 0.01 to 0.05 µM | 2 to 10 µM | > 25 µM | > 0.2 µM |  | 
2 | O=C(NS(=O)(=O)c1ccc(NCC2CCOCC2)c([N+](=O)[O-])c1)c1ccc(N2CCC(CN3C(=O)C4(CCCC4)C3c3ccc(Cl)cc3)CC2)cc1Oc1ccc2[nH]ccc2c1 (centres unmarked) [Compound 10, 4-[4-[[1-(4-chlorophenyl)-3-oxo-2-azaspiro[3.4]octan-2-yl]methyl]-1-piperidyl]-2-(1H-indol-5-yloxy)-N-[3-nitro-4-(tetrahydropyran-4-ylmethylamino)phenyl]sulfonyl-benzamide] |  | > 0.05 µM |  | ≤ 10 µM |  | > 10 µM | > 0.2 µM
3 | CCCC(c1ccc(Br)cc1)N1CCN(c2ccc(C(=O)NS(=O)(=O)c3ccc(NCC4CCOCC4)c([N+](=O)[O-])c3)c(Oc3ccc4[nH]ccc4c3)c2)CC1 (centres unmarked) [Compound 15, 4-[4-[1-(4-bromophenyl)butyl]piperazin-1-yl]-2-(1H-indol-5-yloxy)-N-[3-nitro-4-(tetrahydropyran-4-ylmethylamino)phenyl]sulfonyl-benzamide] | > 4 µM | > 0.05 µM |  |  |  |  | 
4 | O=C(NS(=O)(=O)c1ccc(NCC2CCOCC2)c([N+](=O)[O-])c1)c1ccc(N2CCC(CN3CC4(CCCC4)C3c3ccccc3)CC2)cc1Oc1cnc2[nH]ccc2c1 (centres unmarked) [Compound 27, N-[3-nitro-4-(tetrahydropyran-4-ylmethylamino)phenyl]sulfonyl-4-[4-[(3-phenyl-2-azaspiro[3.4]octan-2-yl)methyl]-1-piperidyl]-2-(1H-pyrrolo[2,3-b]pyridin-5-yloxy)benzamide] | 2 to 4 µM | > 0.05 µM |  | > 25 µM |  | 2 to 10 µM | > 0.2 µM
5 | CC1=CC[C@@H](c2ccc(Cl)cc2)[C@H](CN2CCN(c3ccc(C(=O)NS(=O)(=O)c4ccc(NCC5CCOCC5)c([N+](=O)[O-])c4)c(Oc4cnc5[nH]ccc5c4)c3)CC2)C1 [Compound 60, 4-[4-[[(1R,6R)-6-(4-chlorophenyl)-3-methyl-cyclohex-3-en-1-yl]methyl]piperazin-1-yl]-N-[3-nitro-4-(tetrahydropyran-4-ylmethylamino)phenyl]sulfonyl-2-(1H-pyrrolo[2,3-b]pyridin-5-yloxy)benzamide] | > 4 µM | > 0.05 µM |  |  |  |  | 
6 | O=C(NS(=O)(=O)c1ccc(NCC2CCOCC2)c([N+](=O)[O-])c1)c1ccc(N2CCC(CN3CCCCC3c3ccc(Cl)cc3)CC2)cc1Oc1cccc(F)c1 (centres unmarked) [Compound 62, 4-[4-[[2-(4-chlorophenyl)-1-piperidyl]methyl]-1-piperidyl]-2-(3-fluorophenoxy)-N-[3-nitro-4-(tetrahydropyran-4-ylmethylamino)phenyl]sulfonyl-benzamide] | ≤ 2 µM | > 0.05 µM | 2 to 10 µM | 10 to 25 µM | > 0.2 µM |  | 
7 | O=C(NS(=O)(=O)c1ccc(NCC2CCOCC2)c([N+](=O)[O-])c1)c1ccc(N2CCC(CN3CCCCC3c3ccc(Cl)cc3)CC2)cc1Oc1cncc(CO)c1 (centres unmarked) [Compound 64, 4-[4-[[2-(4-chlorophenyl)-1-piperidyl]methyl]-1-piperidyl]-2-[[5-(hydroxymethyl)-3-pyridyl]oxy]-N-[3-nitro-4-(tetrahydropyran-4-ylmethylamino)phenyl]sulfonyl-benzamide] | > 4 µM | > 0.05 µM | > 10 µM | 10 to 25 µM | > 0.2 µM |  | 
8 | O=C(NS(=O)(=O)c1ccc(NCC2CCOCC2)c([N+](=O)[O-])c1)c1ccc(N2CCN(C[C@@H]3CC(F)(F)CN3c3ccc(Cl)cc3)CC2)cc1Oc1cnc2[nH]ccc2c1 [Compound 81, 4-[4-[[(2S)-1-(4-chlorophenyl)-4,4-difluoro-pyrrolidin-2-yl]methyl]piperazin-1-yl]-N-[3-nitro-4-(tetrahydropyran-4-ylmethylamino)phenyl]sulfonyl-2-(1H-pyrrolo[2,3-b]pyridin-5-yloxy)benzamide] |  |  | 2 to 10 µM | 10 to 25 µM | > 0.2 µM |  | 

Further lines, with some results ahead:

Row | IC50 (BCL-XL) | IC50 (BCL-2) | Structure (SMILES) | CC50 (MOLT-4 cells; [2]) | CC50 at 3 days [1] | CC50 (RS4-11 cells; [3]) | CC50 (MOLT-4 cells; MOLT-4, 72 h) | CC50 (RS4-11 cells; RS4-11, 72 h)
9 | > 4 µM | > 0.05 µM | O=C(NS(=O)(=O)c1ccc(NCC2CCOCC2)c([N+](=O)[O-])c1)c1ccc(N2CCN(C(c3ccccc3)c3ccc(F)cc3)CC2)cc1Oc1ccc2[nH]ccc2c1 (centres unmarked) [Compound 12, 4-[4-[(4-fluorophenyl)-phenyl-methyl]piperazin-1-yl]-2-(1H-indol-5-yloxy)-N-[3-nitro-4-(tetrahydropyran-4-ylmethylamino)phenyl]sulfonyl-benzamide] | > 10 µM | > 25 µM | > 0.2 µM |  | 
10 |  | > 0.05 µM | O=C(NS(=O)(=O)c1ccc(NCC2CCOCC2)c([N+](=O)[O-])c1)c1ccc(N2CCN(C(c3ccccc3)c3ccc(Cl)cc3)CC2)cc1Oc1ccc2[nH]ccc2c1 (centres unmarked) [Compound 14, 4-[4-[(4-chlorophenyl)-phenyl-methyl]piperazin-1-yl]-2-(1H-indol-5-yloxy)-N-[3-nitro-4-(tetrahydropyran-4-ylmethylamino)phenyl]sulfonyl-benzamide] |  |  |  |  | 
11 | > 4 µM | > 0.05 µM | O=C(NS(=O)(=O)c1ccc(NCC2CCOCC2)c([N+](=O)[O-])c1)c1ccc(N2CCN(C(c3ccc(F)cc3)c3ccc(F)cc3)CC2)cc1Oc1ccc2[nH]ccc2c1 [Compound 16, 4-[4-[bis(4-fluorophenyl)methyl]piperazin-1-yl]-2-(1H-indol-5-yloxy)-N-[3-nitro-4-(tetrahydropyran-4-ylmethylamino)phenyl]sulfonyl-benzamide] | > 10 µM | > 25 µM | > 0.2 µM |  | 
12 | > 4 µM | > 0.05 µM | O=C(NS(=O)(=O)c1ccc(NCC2CCOCC2)c([N+](=O)[O-])c1)c1ccc(N2CCN(C(c3ccccc3)c3ccccc3)CC2)cc1Oc1cnc2[nH]ccc2c1 [Compound 17, 4-(4-benzhydrylpiperazin-1-yl)-N-[3-nitro-4-(tetrahydropyran-4-ylmethylamino)phenyl]sulfonyl-2-(1H-pyrrolo[2,3-b]pyridin-5-yloxy)benzamide] | > 10 µM | > 25 µM | > 0.2 µM |  | 
13 | > 4 µM | > 0.05 µM | O=C(NS(=O)(=O)c1ccc(NCC2CCOCC2)c([N+](=O)[O-])c1)c1ccc(N2CCN(C(c3ccccc3)c3ccccc3)CC2)cc1Oc1ccc2[nH]ccc2c1 [Compound 19, 4-(4-benzhydrylpiperazin-1-yl)-2-(1H-indol-5-yloxy)-N-[3-nitro-4-(tetrahydropyran-4-ylmethylamino)phenyl]sulfonyl-benzamide] | > 10 µM | > 25 µM | > 0.2 µM |  | 
14 | 2 to 4 µM | 0.01 to 0.05 µM | O=C(NS(=O)(=O)c1ccc(NCC2CCOCC2)c([N+](=O)[O-])c1)c1ccc(N2CCN(C[C@H]3Cc4ccccc4CN3C(=O)c3cccs3)CC2)cc1Oc1cnc2[nH]ccc2c1 [Compound 34, N-[3-nitro-4-(tetrahydropyran-4-ylmethylamino)phenyl]sulfonyl-2-(1H-pyrrolo[2,3-b]pyridin-5-yloxy)-4-[4-[[(3R)-2-(thiophene-2-carbonyl)-3,4-dihydro-1H-isoquinolin-3-yl]methyl]piperazin-1-yl]benzamide] |  |  |  |  | 
15 | > 4 µM | 0.01 to 0.05 µM | CC1=CC[C@@H](CN2CCN(c3ccc(C(=O)NS(=O)(=O)c4ccc(NCC5CCOCC5)c([N+](=O)[O-])c4)c(Oc4cnc5[nH]ccc5c4)c3)CC2)[C@@H](c2ccc(Cl)cc2)C1 [Compound 71, 4-[4-[[(1R,6S)-6-(4-chlorophenyl)-4-methyl-cyclohex-3-en-1-yl]methyl]piperazin-1-yl]-N-[3-nitro-4-(tetrahydropyran-4-ylmethylamino)phenyl]sulfonyl-2-(1H-pyrrolo[2,3-b]pyridin-5-yloxy)benzamide] |  |  |  |  | 
